Common to all, as to type: in vivo, Nicotiana tabaccum cv. W38
In series [1] the test system is sporamin promoter fused to the GUS reporter gene. As to the kind of experiment: Pspoa-GUS activity in response to elicitors sprayed onto leaves (fluorometric GUS assay). The settings on record: for effect on the sporamin promoter function (in words): treatment alone. The procedure: The plasmid was transformed into tobacco cells (Nicotiana tabaccum cv. W38) using Agrobacterium tumefaciens LBA4404 in the leaf disc method (Hörsch et al. (1985). Science 227:1229–1231). […] Two lines, Tspoa11 and Tspoa37 were selected for further analysis. GUS activity was measured in the leaves of plants obtained from these lines as follows. A middle leaf of the mature tobacco plant was injured with a scissors. Two hours later, wounded and unwounded leaves were harvested, mixed with GUS extraction buffer (50 mM sodium phosphate, pH 7.0, 10 mM EDTA, 10 mM β-mercaptoethanol, 0.1% sodium lauryl sarcosine, 0.1% Triton X-100), frozen, and grounded into a fine powder with a mortar and pestle while in liquid nitrogen. The sample was thawed and centrifuged at 12,000×g for 10 minutes at 4° C. The total protein content was determined using the method of Bradford ((1976) Anal. Biochem. 72:248–254). GUS activity was measured in a fluorometric assay by the addition of 4-methylumbelliferyl-β-D-glucuronide substrate and monitoring the reaction in a […] to determine […] of activity following the method of Jefferson ((1987) EMBO J 6:3901–3908).
The activity the Pspoa-GUS fusion was monitored in response to spraying with the elicitor, methyl jasmonate. Solutions of 50 μM and 100 μM methyl jasmonate were prepared and sprayed onto leaves using a commercial atomizer. Sodium phosphate buffer, pH 7.0, was used as a control solution.
The activity of the sporamin promoter fused to the GUS reporter gene was monitored in response to abscisic acid (ABA). Solutions of 100 μM and 200 μM ABA were prepared and sprayed onto leaves using a commercial atomizer.

Series [2] shares this test system. The description is as above. The settings on record: 1 mM sprayed onto leaves of Pspoa-GUS tobacco.
For the next series, the system named is GUS reporter gene. Description: Pspoa-GUS activity in response to leaf wounding (fluorometric GUS assay). From the text:
To analyze the properties of the sporamin promoter, the promoter was operably linked to the reporter gene β-glucuronidase (GUS). The plasmid pBI101 is a Ti plasmid binary vector harboring the GUS gene in a form lacking a promoter (Clontech, Palo Alto Calif.). The sporamin promoter was excised with the restriction endonucleases XbaI and BamHI, isolated, and ligated into compatible sites of a restricted pBI101 nucleic acid. The resulting plasmid construct, termed pBI101/Pspoa, was verified by restriction mapping and nucleic acid sequencing.
Two lines, Tspoa11 and Tspoa37 were selected for further analysis. GUS activity was measured in the leaves of plants obtained from these lines as follows. A middle leaf of the mature tobacco plant was injured with a scissors. Two hours later, wounded and unwounded leaves were harvested, mixed with GUS extraction buffer (50 mM sodium phosphate, pH 7.0, 10 mM EDTA, 10 mM β-mercaptoethanol, 0.1% sodium lauryl sarcosine, 0.1% Triton X-100), frozen, and grounded into a fine powder with a mortar and pestle while in liquid nitrogen. The sample was thawed and centrifuged at 12,000×g for 10 minutes at 4° C.
GUS activity was monitored as described above at various intervals after leaf wounding.

The mark [3] stands for this setting: 100 μM sprayed onto leaves of Pspoa-GUS tobacco.
Setting [4] is: 200 μM sprayed onto leaves of Pspoa-GUS tobacco.

In the case of `C=C` [ethylene], the “effect on the sporamin promoter function (in words)” value in series [1] is reported as “no effect”.
`CC1=CC(=O)CC(C)(C)[C@@]1(O)/C=C/C(C)=C\C(=O)O` [ABA, abscisic acid]: the values for the GUS activity in series [1] (setting [3]) and in series [1] (setting [4]) were 170 nmole MU/min/mg protein and 60 nmole MU/min/mg protein, respectively. For the same molecule, the “induction of the sporamin promoter (in words)” value in series [1] (100 μM, fluorometric assay) is recorded as “potent inducer”.
On to `CC/C=C\CC1C(=O)CCC1CC(=O)OC` (stereo not shown) [methyl jasmonate], for which the GUS activity in series [1] (50 μM sprayed onto leaves of Pspoa-GUS tobacco) was 420 nmole MU/min/mg protein; in series [1] (setting [3]), 225 nmole MU/min/mg protein. For the same molecule, the GUS activity increase in series [1] (two hours after spraying with 50 μM) worked out at 37 fold; in series [1] (two hours after spraying with 100 μM), 20 fold.
For the molecule `O=C(O)c1ccccc1O` [SA, salicylic acid], the GUS activity worked out at 15 nmole MU/min/mg protein in series [1] (setting [4]) and 21 nmole MU/min/mg protein in series [2]. The “sporamin promoter activity when treatment precedes wounding or methyl jasmonate treatment (in words)” value in series [1] (pre-treatment before wounding / methyl jasmonate) is listed as “less sporamin promoter activity was observed”. In addition, the “effect on the sporamin promoter function (in words)” value in series [1] is “no effect”.

B1: sporamin promoter: 1.25 kb sweet potato (Ipomoea batatas) sporamin promoter sequence, SEQ ID NO:1 (nucleic acid)
DNA: CGACGGCCCGGGCTAGGTCAAGTAACCCGAACTTGGTCAAGTTTGTTATAACTTATTCTCCCTTTTTCGTGAGGGCGGTTAGGGGACTTAGTATAAATAGGAGTGTAATCGGGCTTGTTAAGACATATTGAACTCACCTGTAATAGCATTACATTTCTCGTAAATACGTACAATATCCTTGTCTTTCCAATAACATTTTTGTCTTTTACCATTATCTTTTATCCAATCCTTTAATTATCGAGTTTGTTAATTCAGATCACCCAAATTAATTAAATCCATCATTTGGATTAAGTTATCTTACTTTACTAATTAGAGTTTTTATCTTCAGAGGAAGGAAGAAGAAAATTAATTGACATGACTCTCATCGGGTTGCACTCCACCCATTATGTTATACAATGCAAACTCTTTTAAAATAAATTAAAATTATATATATATATAATAGTGCAACCTACATCACTTTTTCAATGTGGGACGAAAGCACCTTCAAAAGTCTTTCGAACCCCATTTTTCCTCGAATATATTTTGAGAATCAATTTCTCAATTAATCATTATTATCCATCTTCGTGTACATATATAATATATATATCACATTAAACATCTAACTTAGAAGAACTCAAATTTATTTTTAACTCTACTTATATCAAAAGTGGACTCTACTGAAAATTATACCACAAAATGATATTTTAAACGTTATATTTAACAAAAATTTCTGACATTATCTTATTTAATCTTCTACTAGTTAGAATAATAAAACAAATTTCACTCATAACATAAATTTAAATAGTGATCGTGAATTTTTACGGAAATTAATCAAATAATTGTATGTAATAATGTAATGTAATGAATTTTGATGATGGGTAAAATGTATTTTAATTATTACACGACTTGCCTTCTTTAATTTGTTCTTAGGATCCTAGACTTCATCCCTGCATAGCAAAACCATTGGACACTTGGACGGCCACAAATCATTTCTATTTTCTCCCAACTCCTCCTGTCAGCATGGGATCATTATCAACTTTATCTCATCCCATTACACACCGTAAGTGTACCATCCATCGCTCAATCACTGTATACTTAAATCTCCAGATTAAGTCACTAAATAACTGTGTTGGACTGTGAAAACTTTGAGTAAAAAAAGGCAAAATACTCTTAAAACTGTACAAAAAACAATAATTCAACCCTTACTCTTGTTGTCTATAAATTGGATGCATGAGAGCTCAACACAACACAACACCACCAACAAATTAAACATCATTACCTCTTAGCTTTTCTCCCAAGTTGTC
modifications: Ipomoea batatas
Regarding B1, in the series with GUS reporter gene (leaf wounding), the “time GUS expression remained above 250 nmole MU/min/mg after wounding” value was “at least 50 hours” and the “time to induction of GUS expression after wounding” value was no more than 15 min. For the same molecule, the “maximum GUS expression level over the uninduced (unwounded) level” value with GUS reporter gene (maximum at 12 hours after wounding) is 16 fold. Further, the “level of GUS expression after leaf wounding” value with GUS reporter gene (within 2 hours of wounding) is “over 250 nmole MU/min/mg of protein”.
